This experiment has as its system KARN cells (Jurkat 2C4). Description: KARN assay (luciferase induction). Format: cell-based. As to conditions: ~20 hr, 100% induction = 2 μM SAHA. Here is the method:
KARN cells (Jurkat 2C4) were licensed from the laboratory of Dr. John Kam, Case Western Reserve University, School of Medicine. […] An atmosphere of 5% CO2 and 90% humidity was used for all culture work. Cells were split and reseeded into T175 flasks at a density of 0.2×10^6 cells/ml, in 40 ml of media, every 3-4 days.
Day 1: After the 3-4 day growth period, the cells were transferred from the T175 flask to a 50 ml conical tube and gently pelleted at 1000 rpm for 5 minutes. […] These flasks were returned to the incubator.
Day 2: Cell Preparation: The next day, the cells were transferred from each T175 flask to an individual 50 ml conical tube and gently pelleted at 1000 rpm for 5 minutes. The cells were gently resuspended in assay media (30 ml) and pelleted again. […] The cells were counted using the ViCell (Beckman Coulter, Brea, Calif.) and diluted as necessary. A Multidrop (Combi, Thermo Scientific, Waltham, Mass.) with a sterile head was used to seed the cells into the wells of a 384-well solid black plate with lid (Perkin Elmer, Waltham, Mass., catalog number 6007660) at 4000 cells/30 μl/well for the 5% NHS assay media and 6000 cells/30 μl/well for 0.1% NHS assay. The plates were covered and returned to the incubator prior to compound addition.
Compound Preparation: Solutions of control inhibitor suberoylanilide hydroxamic acid (SAHA; Sigma, catalog number SML0061) and test compounds in 100% DMSO were titrated into 384-well polypropylene plates (Labcyte, San Jose, Calif., catalog number P-05525) using a 20-point dose response and 2-fold dilutions. The reference compounds, DMSO and SAHA were then added to the compound plate. Using the Access system (Labcyte), 120 nl of these inhibitor and control solutions were added to the individual wells of the plates containing the cells, and the plates were then returned to the incubator for ˜20 hr (range from 18-24 hr). The final high concentration for SAHA and the test compounds in the assays was 40 μM. The final DMSO concentration in all wells was 0.4%. The minimal induction reference compound used was DMSO and the maximal induction reference compound used was SAHA (2 μM final concentration in the assay).
Day 3: The luciferase detection reagent was prepared by transferring the contents of one bottle of Steady-Glo buffer to one bottle of Steady-Glo substrate (Steady-Glo Luciferase Assay System, Promega, Madison, […]., catalog number E2520), followed by gently mixing until the substrate was thoroughly dissolved and the solution was equilibrated to room temperature. The cell culture assay plates were removed from the incubator and brought to room temperature (15 min). The Steady-Glo Reagent was added to the plates (30 μl/well), which were then covered with a black lid and incubated for 10 minutes at room temperature. The plates were then read for luminescence on an Envision (Perkin Elmer) using the ultrasensitive mode (US LUM), […] and 384-well aperture. Luminescence counts in the DMSO reference wells were considered as 0% induction, while those in the 2 μM SAHA reference wells were considered as 100% induction. Dose response curves were plotted as test compound concentration (X-axis) vs. percent activation (Y-axis) using a 4-parameter fit based on the Levenberg-Marquardt algorithm.

Setting [1] is: Jurkat, read-out: Karn EC50 with 0.1% NHS, 0.1% normal human serum.
Setting [2] is: Jurkat, read-out: Karn EC50 with 5% NHS, 5% normal human serum.
[3] abbreviates: read-out: Karn EC50 with 0.1% NHS, 0.1% normal human serum.
Where [4] appears, read: read-out: Karn EC50 with 5% NHS, 5% normal human serum.

Read-outs that look alike come from different tables or passages of the source. Bounds are passed on as bounds.

As to `CCC(=O)CCCCC[C@@H]1NC(=O)[C@H]2CC23CCN(CCCCCCCCn2ccc4cc(c(OC)cc4c2=O)-c2cnc1[nH]2)CC3` [Compound 5, (1^1S,4S)-6^7-methoxy-4-(6-oxooctyl)-6^1,6^2-dihydro-5^1H-3-aza-6(6,2)-isoquinolina-15(4,1)-piperidina-5(2,5)-imidazola-1(1,2)-cyclopropanapentadecaphane-6^1,2-dione], the concentration giving a half-maximal response (EC50) is 0.011 µM under setting [1] and 0.012 µM under setting [2].

For the compound `CCC(=O)CCCCCC1NC(=O)C2CC2N2CCC(CCCCCn3c(=O)ccc4cc(ccc43)-c3cnc1o3)CC2` [Compound 7, (11S,4S)-4-(6-oxooctyl)-61,62-dihydro-3-aza-5(2,5)-oxazola-6(6,1)-quinolina-12(4,1)-piperidina-1(1,2)-cyclopropanadodecaphane-62,2-dione], the EC50 reads like this: under setting [3], 5.15 µM; under setting [4], 4.73 µM.

For the compound `CCC(=O)CCCCC[C@@H]1NC(=O)[C@H]2CC23CCN(CCCOCCCn2ccc4cc(ccc4c2=O)-c2cnc1[nH]2)CC3` [Compound 12, (3S,6S)-6-(6-oxooctyl)-22-oxa-5,8,18,26,33-pentaazahexacyclo[24.2.2.1˜7,10˜0.1˜11,15˜0.1˜14,18˜0.0˜1,3˜]tritriaconta-7,9,11(32),12,14,16-hexaene-4,31-dione], the EC50 is, setting by setting: under setting [1], 1.79 µM; under setting [2], 1.99 µM.

For the compound `CCC(=O)CCCCC[C@H](NC(=O)[C@H]1CC12CCN(CC)CC2)c1[nH]c2nc1C(=O)NCCC/C=C/c1cccc-2c1` [Compound 15, (1S)-6-ethyl-N-{(1S)-7-oxo-1-[(11E)-6-oxo-3,7,18-triazatricyclo[11.3.1.1~2,5~]octadeca-1(17),2(18),4,11,13,15-hexaen-4-yl]nonyl}-6-azaspiro[2.5]octane-1-carboxamide], the EC50 reads like this: under setting [1], 5.24 µM; under setting [2], 19.3 µM.

For “(11S,4S)-4-(6-oxooctyl)-61,62-dihydro-3-aza-5(2,5)-oxazola-6(6,1)-quinolina-12(4,1)-piperidina-1(1,2)-cyclopropanadodecaphane-62,2-dione [Compound 8]”, the EC50 was greater than 40 µM under setting [3] and greater than 40 µM under setting [4].

The term EC50 denotes the concentration needed to bring the measured effect to its halfway point.

The record behind these values is patent US11976069B2, “Inhibitors of histone deacetylase useful for the treatment or prevention of HIV infection” (Merck Sharp & Dohme LLC, priority 2019, dated 2024).
